Results published in patent US9233964B2, “Sulfamide piperazine derivatives as protein tyrosine kinase inhibitors and pharmaceutical use therof” (LEO PHARMA A/S, priority 2011, dated 2016).
pEC50: −log10 of the molar value.

Experiments:
Assay type in all cases: biochemical
JAK1 = molecular target: T1, JAK1 (Homo sapiens, UniProt P23458); assay: JAK kinase assay (HTRF, phosphorylation of synthetic peptide), JAK1; conditions: catalytic domain, ATP at Km (7 μM); read-out: JAK1 kinase inhibitory activity (EC50)
T1 construct: JAK1 (aa 850-1154) and TYK2 (aa 871-1187) are expressed with an N-terminally fused GST-tag; GST (N); purchased Carna Biosciences, Inc; host or cells: baculovirus expression system
In short: (§1)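 Catalytic-domain human JAK1 (GST-tagged, aa 850-1154) or His-tagged JAK2, baculovirus-expressed, phosphorylated 1 µM biotinylated TK peptide at Km ATP (JAK1 7 µM, 10 mM MgCl2, 50 nM SEB; JAK2 4 µM, 5 mM MgCl2) in pH 7.0 Hepes, 20-30 min RT. EDTA stop; overnight streptavidin-XL665/cryptate HTRF read.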

JAK3 = molecular target: T2, JAK3 (Homo sapiens, UniProt P52333); assay: JAK kinase assay (HTRF, phosphorylation of synthetic peptide), JAK3; conditions: catalytic domain, ATP at Km (2 μM); read-out: JAK3 kinase inhibitory activity (EC50)
T2 construct: All four purified enzymes contain only the catalytic domain; His (N); purchased Carna Biosciences, Inc; host or cells: baculovirus expression system

JAK2 = molecular target: T3, JAK2 (Homo sapiens, UniProt O60674); assay: JAK kinase assay (HTRF, phosphorylation of synthetic peptide), JAK2; conditions: catalytic domain, ATP at Km (4 μM); read-out: JAK2 kinase inhibitory activity (EC50)
T3 construct: All four purified enzymes contain only the catalytic domain; His (N); purchased Carna Biosciences, Inc; host or cells: baculovirus expression system
In short: as §1

TYK2 = molecular target: T4, TYK2 (Homo sapiens, UniProt P29597); assay: JAK kinase assay (HTRF, phosphorylation of synthetic peptide), TYK2; conditions: catalytic domain, ATP at Km (13 μM); read-out: TYK2 kinase inhibitory activity (EC50)
T4 construct: JAK1 (aa 850-1154) and TYK2 (aa 871-1187) are expressed with an N-terminally fused GST-tag; GST (N); purchased Carna Biosciences, Inc; host or cells: baculovirus expression system
T4 sequence (P29597 871-1187): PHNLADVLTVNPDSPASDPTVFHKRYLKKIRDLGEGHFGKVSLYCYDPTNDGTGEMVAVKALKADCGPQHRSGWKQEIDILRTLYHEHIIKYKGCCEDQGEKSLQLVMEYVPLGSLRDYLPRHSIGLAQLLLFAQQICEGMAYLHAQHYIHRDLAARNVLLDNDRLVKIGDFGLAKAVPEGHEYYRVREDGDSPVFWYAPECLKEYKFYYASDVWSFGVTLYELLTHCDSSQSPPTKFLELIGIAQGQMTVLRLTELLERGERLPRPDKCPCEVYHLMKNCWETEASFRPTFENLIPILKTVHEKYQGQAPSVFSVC
In short: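 1 µM biotinylated TK peptide at Km ATP in pH 7.0 Hepes, 20-30 min RT. EDTA stop; overnight streptavidin-XL665/cryptate HTRF read.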

T2 sequence (P52333 822-1111 limits assumed): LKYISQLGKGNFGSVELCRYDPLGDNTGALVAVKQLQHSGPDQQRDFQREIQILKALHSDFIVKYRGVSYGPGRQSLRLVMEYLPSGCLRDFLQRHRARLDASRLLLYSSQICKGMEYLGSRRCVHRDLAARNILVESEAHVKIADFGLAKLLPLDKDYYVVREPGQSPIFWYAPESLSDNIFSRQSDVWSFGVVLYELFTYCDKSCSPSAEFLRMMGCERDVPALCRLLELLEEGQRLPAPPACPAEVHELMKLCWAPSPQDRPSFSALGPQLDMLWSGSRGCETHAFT
T3 sequence (O60674 849-1124 limits assumed): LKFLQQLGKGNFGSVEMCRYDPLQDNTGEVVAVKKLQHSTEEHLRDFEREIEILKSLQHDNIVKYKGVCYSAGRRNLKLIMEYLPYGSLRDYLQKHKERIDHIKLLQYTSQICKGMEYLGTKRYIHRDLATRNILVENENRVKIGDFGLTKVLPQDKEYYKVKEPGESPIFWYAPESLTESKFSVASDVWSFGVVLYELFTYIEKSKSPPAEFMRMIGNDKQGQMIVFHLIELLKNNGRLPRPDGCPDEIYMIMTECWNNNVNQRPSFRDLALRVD
T1 sequence (P23458 850-1154): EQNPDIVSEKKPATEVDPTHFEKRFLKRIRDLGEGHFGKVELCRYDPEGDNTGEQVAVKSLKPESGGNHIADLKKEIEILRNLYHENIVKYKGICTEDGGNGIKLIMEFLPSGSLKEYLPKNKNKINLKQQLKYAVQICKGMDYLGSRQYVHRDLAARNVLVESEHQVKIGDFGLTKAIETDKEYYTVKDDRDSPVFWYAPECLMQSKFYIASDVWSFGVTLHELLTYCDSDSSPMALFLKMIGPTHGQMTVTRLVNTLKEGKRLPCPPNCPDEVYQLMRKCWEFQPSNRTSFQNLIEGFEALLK

## CN(C(=O)C1CCCC1)S(=O)(=O)N1CCN(c2ncnc3[nH]ccc23)CC12CC2 [Example 132, N-methyl-N-[[5-(7H-pyrrolo[2,3-d]pyrimidin-4-yl)-5,8-diazaspiro[2.5]octan-8-yl]sulfonyl]cyclopentanecarboxamide]
JAK1
  pEC50: > 7.00
JAK3
  pEC50: 6.30 to 7.00
JAK2
  pEC50: > 7.00
TYK2
  pEC50: 6.30 to 7.00

## CN(C(=O)CC1CCCC1)S(=O)(=O)N1CCN(c2ncnc3[nH]ccc23)CC12CC2 [Example 133, 2-cyclopentyl-N-methyl-N-[[5-(7H-pyrrolo[2,3-d]pyrimidin-4-yl)-5,8-diazaspiro[2.5]octan-8-yl]sulfonyl]acetamide]
JAK1
  pEC50: > 7.00
JAK3
  pEC50: 6.30 to 7.00
JAK2
  pEC50: > 7.00
TYK2
  pEC50: 6.30 to 7.00

## CN(C(=O)CCC1CCCC1)S(=O)(=O)N1CCN(c2ncnc3[nH]ccc23)CC12CC2 [Example 134, 3-cyclopentyl-N-methyl-N-[[5-(7H-pyrrolo[2,3-d]pyrimidin-4-yl)-5,8-diazaspiro[2.5]octan-8-yl]sulfonyl]propanamide]
JAK1
  pEC50: > 7.00
JAK3
  pEC50: < 6.30
JAK2
  pEC50: 6.30 to 7.00
TYK2
  pEC50: < 6.30

## CN(C(=O)C1CCS(=O)(=O)C1)S(=O)(=O)N1CCN(c2ncnc3[nH]ccc23)CC12CC2 (stereo not shown) [Example 135, N-methyl-1,1-dioxo-N-[[5-(7H-pyrrolo[2,3-d]pyrimidin-4-yl)-5,8-diazaspiro[2.5]octan-8-yl]sulfonyl]thiolane-3-carboxamide]
JAK1
  pEC50: > 7.00
JAK3
  pEC50: > 7.00
JAK2
  pEC50: > 7.00
TYK2
  pEC50: 6.30 to 7.00

## CN(C(=O)CC1CCS(=O)(=O)CC1)S(=O)(=O)N1CCN(c2ncnc3[nH]ccc23)CC12CC2 [Example 136, 2-(1,1-dioxothian-4-yl)-N-methyl-N-[[5-(7H-pyrrolo[2,3-d]pyrimidin-4-yl)-5,8-diazaspiro[2.5]octan-8-yl]sulfonyl]acetamide]
JAK1
  pEC50: > 7.00
JAK3
  pEC50: 6.30 to 7.00
JAK2
  pEC50: > 7.00
TYK2
  pEC50: < 6.30

## CN(C(=O)CCC1CCS(=O)(=O)C1)S(=O)(=O)N1CCN(c2ncnc3[nH]ccc23)CC12CC2 (stereo not shown) [Example 137, 3-(1,1-dioxothiolan-3-yl)-N-methyl-N-[[5-(7H-pyrrolo[2,3-d]pyrimidin-4-yl)-5,8-diazaspiro[2.5]octan-8-yl]sulfonyl]propanamide]
JAK1
  pEC50: > 7.00
JAK3
  pEC50: 6.30 to 7.00
JAK2
  pEC50: > 7.00
TYK2
  pEC50: < 6.30

## CN(C(=O)CC1CCS(=O)(=O)C1)S(=O)(=O)N1CCN(c2ncnc3[nH]ccc23)CC12CC2 (stereo not shown) [Example 138, 2-(1,1-dioxothiolan-3-yl)-N-methyl-N-[[5-(7H-pyrrolo[2,3-d]pyrimidin-4-yl)-5,8-diazaspiro[2.5]octan-8-yl]sulfonyl]acetamide]
JAK1
  pEC50: > 7.00
JAK3
  pEC50: 6.30 to 7.00
JAK2
  pEC50: > 7.00
TYK2
  pEC50: < 6.30

## CN(C(=O)C1CCS(=O)(=O)CC1)S(=O)(=O)N1CCN(c2ncnc3[nH]ccc23)CC12CC2 [Example 139, N-methyl-1,1-dioxo-N-[[5-(7H-pyrrolo[2,3-d]pyrimidin-4-yl)-5,8-diazaspiro[2.5]octan-8-yl]sulfonyl]thiane-4-carboxamide]
JAK1
  pEC50: > 7.00
JAK3
  pEC50: > 7.00
JAK2
  pEC50: > 7.00
TYK2
  pEC50: > 7.00

## CN(C(=O)C1CCCS(=O)(=O)C1)S(=O)(=O)N1CCN(c2ncnc3[nH]ccc23)CC12CC2 (stereo not shown) [Example 140, N-methyl-1,1-dioxo-N-[[5-(7H-pyrrolo[2,3-d]pyrimidin-4-yl)-5,8-diazaspiro[2.5]octan-8-yl]sulfonyl]thiane-3-carboxamide]
JAK1
  pEC50: > 7.00
JAK3
  pEC50: 6.30 to 7.00
JAK2
  pEC50: > 7.00
TYK2
  pEC50: < 6.30

## CN(C1CC1)S(=O)(=O)N1CCN(c2ncnc3[nH]ccc23)CC12CC2 [Example 141, N-cyclopropyl-N-methyl-5-(7H-pyrrolo[2,3-d]pyrimidin-4-yl)-5,8-diazaspiro[2.5]octane-8-sulfonamide]
JAK1
  pEC50: > 7.00
JAK3
  pEC50: 6.30 to 7.00
JAK2
  pEC50: > 7.00
TYK2
  pEC50: 6.30 to 7.00

## N#CCCN(CC1CCCO1)S(=O)(=O)N1CCN(c2ncnc3[nH]ccc23)CC12CC2 (stereo not shown) [Example 142, N-(2-cyanoethyl)-5-(7H-pyrrolo[2,3-d]pyrimidin-4-yl)-N-(tetrahydrofuran-2-ylmethyl)-5,8-diazaspiro[2.5]octane-8-sulfonamide]
JAK1
  pEC50: > 7.00
JAK3
  pEC50: > 7.00
JAK2
  pEC50: > 7.00
TYK2
  pEC50: 6.30 to 7.00

## CCCC(C)NS(=O)(=O)N1CCN(c2ncnc3[nH]ccc23)CC12CC2 (stereo not shown) [Example 143, N-(1-methylbutyl)-5-(7H-pyrrolo[2,3-d]pyrimidin-4-yl)-5,8-diazaspiro[2.5]octane-8-sulfonamide]
JAK1
  pEC50: > 7.00
JAK3
  pEC50: 6.30 to 7.00
JAK2
  pEC50: > 7.00
TYK2
  pEC50: < 6.30

## O=S(=O)(NC1CCCC1)N1CCN(c2ncnc3[nH]ccc23)CC12CC2 [Example 144, N-cyclopentyl-5-(7H-pyrrolo[2,3-d]pyrimidin-4-yl)-5,8-diazaspiro[2.5]octane-8-sulfonamide]
JAK1
  pEC50: > 7.00
JAK3
  pEC50: 6.30 to 7.00
JAK2
  pEC50: > 7.00
TYK2
  pEC50: 6.30 to 7.00

## N#CCN(CC#N)S(=O)(=O)N1CCN(c2ncnc3[nH]ccc23)CC12CC2 [Example 145, N,N-bis(cyanomethyl)-5-(7H-pyrrolo[2,3-d]pyrimidin-4-yl)-5,8-diazaspiro[2.5]octane-8-sulfonamide]
JAK1
  pEC50: > 7.00
JAK3
  pEC50: > 7.00
JAK2
  pEC50: > 7.00
TYK2
  pEC50: 6.30 to 7.00

## O=S(=O)(N(Cc1ccccc1)Cc1ccccc1)N1CCN(c2ncnc3[nH]ccc23)CC12CC2 [Example 146, N,N-dibenzyl-5-(7H-pyrrolo[2,3-d]pyrimidin-4-yl)-5,8-diazaspiro[2.5]octane-8-sulfonamide]
JAK1
  pEC50: 6.30 to 7.00
JAK3
  pEC50: < 6.30
JAK2
  pEC50: 6.30 to 7.00
TYK2
  pEC50: < 6.30

## O=S(=O)(NCc1ccccc1)N1CCN(c2ncnc3[nH]ccc23)CC12CC2 [Example 147, N-benzyl-5-(7H-pyrrolo[2,3-d]pyrimidin-4-yl)-5,8-diazaspiro[2.5]octane-8-sulfonamide]
JAK1
  pEC50: > 7.00
JAK3
  pEC50: 6.30 to 7.00
JAK2
  pEC50: > 7.00
TYK2
  pEC50: 6.30 to 7.00

## O=S(=O)(NCC1CCC(F)(F)CC1)N1CCN(c2ncnc3[nH]ccc23)CC12CC2 [Example 148, N-[(4,4-difluorocyclohexyl)methyl]-5-(7H-pyrrolo[2,3-d]pyrimidin-4-yl)-5,8-diazaspiro[2.5]octane-8-sulfonamide]
JAK1
  pEC50: > 7.00
JAK3
  pEC50: > 7.00
JAK2
  pEC50: > 7.00
TYK2
  pEC50: 6.30 to 7.00

## CCN(CC1CCC(F)(F)CC1)S(=O)(=O)N1CCN(c2ncnc3[nH]ccc23)CC12CC2 [Example 149, N-[(4,4-difluorocyclohexyl)methyl]-N-ethyl-5-(7H-pyrrolo[2,3-d]pyrimidin-4-yl)-5,8-diazaspiro[2.5]octane-8-sulfonamide]
JAK1
  pEC50: > 7.00
JAK3
  pEC50: > 7.00
JAK2
  pEC50: > 7.00
TYK2
  pEC50: < 6.30

## O=S(=O)(N(CC1CCC(F)(F)CC1)CC1CCC(F)(F)CC1)N1CCN(c2ncnc3[nH]ccc23)CC12CC2 [Example 150, N,N-bis[(4,4-difluorocyclohexyl)methyl]-5-(7H-pyrrolo[2,3-d]pyrimidin-4-yl)-5,8-diazaspiro[2.5]octane-8-sulfonamide]
JAK1
  pEC50: 6.30 to 7.00
JAK3
  pEC50: 6.30 to 7.00
JAK2
  pEC50: > 7.00
TYK2
  pEC50: < 6.30

## CN(CC1CCN(C(=O)CCO)CC1)S(=O)(=O)N1CCN(c2ncnc3[nH]ccc23)CC12CC2 [Example 151, N-[[1-(3-hydroxypropanoyl)-4-piperidyl]methyl]-N-methyl-5-(7H-pyrrolo[2,3-d]pyrimidin-4-yl)-5,8-diazaspiro[2.5]octane-8-sulfonamide]
JAK1
  pEC50: > 7.00
JAK3
  pEC50: 6.30 to 7.00
JAK2
  pEC50: > 7.00
TYK2
  pEC50: 6.30 to 7.00

## CN(CC1CCN(C(=O)CCC#N)CC1)S(=O)(=O)N1CCN(c2ncnc3[nH]ccc23)CC12CC2 [Example 152, N-[[1-(3-cyanopropanoyl)-4-piperidyl]methyl]-N-methyl-5-(7H-pyrrolo[2,3-d]pyrimidin-4-yl)-5,8-diazaspiro[2.5]octane-8-sulfonamide]
JAK1
  pEC50: > 7.00
JAK3
  pEC50: 6.30 to 7.00
JAK2
  pEC50: > 7.00
TYK2
  pEC50: < 6.30

## CN(CC1CCCN(C(=O)CCC#N)C1)S(=O)(=O)N1CCN(c2ncnc3[nH]ccc23)CC12CC2 (stereo not shown) [Example 153, N-[[1-(3-cyanopropanoyl)-3-piperidyl]methyl]-N-methyl-5-(7H-pyrrolo[2,3-d]pyrimidin-4-yl)-5,8-diazaspiro[2.5]octane-8-sulfonamide]
JAK1
  pEC50: > 7.00
JAK3
  pEC50: 6.30 to 7.00
JAK2
  pEC50: > 7.00
TYK2
  pEC50: < 6.30
